These results are taken from ChEMBL document CHEMBL1149891, “Rationally designed PKA inhibitors for positron emission tomography: Synthesis and cerebral biodistribution of N-(2-(4-bromocinnamylamino)ethyl)-N-[11C]methyl-isoquinoline-5-sulfonamide” (Bioorg Med Chem, 2008).

The nature of data set [1]: Partition coefficient, log P in phosphate buffer at pH 7.4. It is filed as physicochemical.
A short description of data set [2]: Biodistribution in tail vein injected Sprague-Dawley rat brain after 5 to 60 mins. It is filed as ADME, organism-based. As to conditions: iv, read-out: Drug uptake.
Data set [3] is described as follows: Inhibition of PKA.

In general, logD refers to lipophilicity at a set pH, counting ionised and neutral species. Read a low logD as a more hydrophilic compound. Broadly, the IC50 is the concentration needed to halve the response being measured. Read a high IC50 as a need for much substance. Take `CN(CCNC/C=C/c1ccc(Br)cc1)S(=O)(=O)c1cccc2cnccc12`: the log distribution coefficient (logD) in data set [1] worked out at 2.93. Further, in data set [2], the tissue uptake was less than 0.2 %ID/g. The same molecule showed an IC50 in data set [3] of 1280 nM.
Consider `O=S(=O)(NCCNC/C=C/c1ccc(Br)cc1)c1cccc2cnccc12`, for which, in data set [3], the IC50 was 940 nM.
